Numbered stars: 1 amine (or outer) side, 2 acyl side, 3 side chain; on linkers, the order of the positions; unused ones are H or OH. Bridge positions count the residues as written; N and C are the ends. Square brackets hold non-standard residues; d marks the D form. Peptide text beside a SMILES is read from it. * marks the point of attachment. C20 diacid = O=C(O)CCCCCCCCCCCCCCCCCCC(=O)*; γGlu = O=C(O)[C@H](CCC(=O)[*:2])N[*:1]; Hyp = O=C(O)[C@@H]1C[C@@H](O)CN1
Biological target: T1, hAMY3 receptor (Homo sapiens, UniProt O60896+P30988)
T1 sequence (P30988 25-474): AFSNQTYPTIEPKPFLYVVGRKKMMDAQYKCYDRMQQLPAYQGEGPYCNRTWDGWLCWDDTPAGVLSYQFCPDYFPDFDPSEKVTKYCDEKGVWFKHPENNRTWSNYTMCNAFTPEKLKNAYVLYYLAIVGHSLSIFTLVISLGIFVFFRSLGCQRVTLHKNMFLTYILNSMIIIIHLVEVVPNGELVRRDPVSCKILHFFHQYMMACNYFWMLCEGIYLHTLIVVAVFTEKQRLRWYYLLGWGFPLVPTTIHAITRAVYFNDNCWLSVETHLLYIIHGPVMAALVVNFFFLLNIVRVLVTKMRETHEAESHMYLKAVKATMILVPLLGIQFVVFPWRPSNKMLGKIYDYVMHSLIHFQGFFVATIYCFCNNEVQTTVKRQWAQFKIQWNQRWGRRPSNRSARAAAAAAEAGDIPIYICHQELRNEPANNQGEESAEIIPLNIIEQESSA
T1 sequence (O60896 24-148 partner): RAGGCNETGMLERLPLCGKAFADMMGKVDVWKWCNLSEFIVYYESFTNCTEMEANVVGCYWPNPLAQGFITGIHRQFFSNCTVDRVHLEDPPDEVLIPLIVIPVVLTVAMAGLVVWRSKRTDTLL
Assay: cAMP assay for in vitro receptor activation, hAMY3-R
Format: cell-based
Details: cAMP assay, hAMY3 receptor; read-out: hAMY3R EC50
Outline: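 Thawed cells from a sub-cloned monoclonal hAMY3-overexpressing line are plated in DPBS containing 0.05% casein and 0.5 mM IBMX. Test compounds are added immediately at graded doses for 30 min at room temperature. Reagents for cAMP detection are then added, and TR-FRET is recorded after one hour.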

SMILES | EC50 [nM]
CC[C@H](C)[C@H](NC(=O)[C@H](CCCCN)NC(=O)[C@H](CO)NC(=O)[C@H](CCCNC(=N)N)NC(=O)[C@@H]1CCCN1C(=O)[C@H](C)NC(=O)[C@@H](NC(=O)[C@H](CC(N)=O)NC(=O)[C@H](CC(=O)O)NC(=O)[C@H](CCCCN)NC(=O)[C@H](CC(=O)O)NC(=O)[C@H](CCCCN)NC(=O)[C@H](CC(=O)O)NC(=O)[C@@H](NC(=O)[C@H](Cc1ccccc1)NC(=O)[C@H](CCC(N)=O)NC(=O)[C@H](Cc1ccc(O)cc1)NC(=O)[C@@H](NC(=O)[C@H](CCC(N)=O)NC(=O)[C@H](Cc1c[nH]cn1)NC(=O)[C@H](C)NC(=O)[C@H](CC(C)C)NC(=O)[C@H](CCCNC(=N)N)NC(=O)[C@H](CCC(N)=O)NC(=O)[C@@H](NC(=O)[C@@H](NC(=O)[C@@H]1CSSC[C@H](NC(=O)CN)C(=O)N[C@@H](CCCNC(=N)N)C(=O)N[C@@H]([C@@H](C)O)C(=O)NCC(=O)N[C@@H]([C@@H](C)O)C(=O)N1)[C@@H](C)O)C(C)C)[C@@H](C)CC)[C@@H](C)O)C(C)C)C(=O)NCC(=O)N1CCC[C@H]1C(=O)N[C@@H](CCC(N)=O)C(=O)NCC(=O)N1C[C@H](O)C[C@H]1C(N)=O [compound 179] (H-GCRTGTCTVQRLAHQIYQFTDKDKDNVAPRSKIGPQG[Hyp]-NH2; disulfide 2-7) | 0.082
CC[C@H](C)[C@H](NC(=O)[C@H](CCC(N)=O)NC(=O)[C@H](Cc1c[nH]cn1)NC(=O)[C@H](C)NC(=O)[C@H](CC(C)C)NC(=O)[C@H](CCCNC(=N)N)NC(=O)[C@H](CCC(N)=O)NC(=O)[C@@H](NC(=O)[C@@H](NC(=O)[C@@H]1CSSC[C@H](NC(=O)CN)C(=O)N[C@@H](CCCNC(=N)N)C(=O)N[C@@H](Cc2ccccc2)C(=O)NCC(=O)N[C@@H]([C@@H](C)O)C(=O)N1)[C@@H](C)O)C(C)C)C(=O)N[C@@H](Cc1ccc(O)cc1)C(=O)N[C@@H](CCC(N)=O)C(=O)N[C@@H](Cc1ccccc1)C(=O)N[C@H](C(=O)N[C@@H](CC(=O)O)C(=O)N[C@@H](CCCCN)C(=O)N[C@@H](CC(=O)O)C(=O)N[C@@H](CCCCN)C(=O)N[C@@H](CC(=O)O)C(=O)N[C@@H](CC(N)=O)C(=O)N[C@H](C(=O)N[C@@H](C)C(=O)N1CCC[C@H]1C(=O)N[C@@H](CCCNC(=N)N)C(=O)N[C@@H](CO)C(=O)N[C@@H](CCCCN)C(=O)N[C@H](C(=O)N[C@@H](CO)C(=O)N1CCC[C@H]1C(=O)N[C@@H](CCC(N)=O)C(=O)NCC(=O)N[C@@H](Cc1ccc(O)cc1)C(N)=O)C(C)C)C(C)C)[C@@H](C)O [compound 174] (H-GCRFGTCTVQRLAHQIYQFTDKDKDNVAPRSKVSPQGY-NH2; disulfide 2-7; N-terminus assumed) | 0.071
CC[C@H](C)[C@H](NC(=O)[C@H](CCCCN)NC(=O)[C@H](CO)NC(=O)[C@H](CCCNC(=N)N)NC(=O)[C@@H]1CCCN1C(=O)[C@H](C)NC(=O)[C@@H](NC(=O)[C@H](CC(N)=O)NC(=O)[C@H](CC(=O)O)NC(=O)[C@H](CCCCN)NC(=O)[C@H](CC(=O)O)NC(=O)[C@H](CCCCN)NC(=O)[C@H](CC(=O)O)NC(=O)[C@@H](NC(=O)[C@H](Cc1ccccc1)NC(=O)[C@H](CCC(N)=O)NC(=O)[C@@H](NC(=O)[C@H](CC(C)C)NC(=O)[C@H](Cc1ccccc1)NC(=O)[C@H](CC(N)=O)NC(=O)[C@H](C)NC(=O)[C@H](CC(C)C)NC(=O)[C@H](CCCNC(=N)N)NC(=O)[C@H](CCC(N)=O)NC(=O)[C@@H](NC(=O)[C@H](C)NC(=O)[C@@H]1CSSC[C@H](NC(=O)[C@H](CCCCN)NC(=O)CC[C@H](NC(=O)CCCCCCCCCCCCCCCCCCC(=O)O)C(=O)O)C(=O)N[C@@H](CC(N)=O)C(=O)N[C@@H](Cc2ccccc2)C(=O)N[C@@H](C)C(=O)N[C@@H]([C@@H](C)O)C(=O)N1)[C@@H](C)O)C(C)C)[C@@H](C)O)C(C)C)C(=O)NCC(=O)N1CCC[C@H]1C(=O)N[C@@H](CCC(N)=O)C(=O)NCC(=O)N[C@@H](Cc1ccc(O)cc1)C(N)=O [compound 389] ({C20 diacid-γGlu}-KCNFATCATQRLANFLVQFTDKDKDNVAPRSKIGPQGY-NH2; disulfide 2-7) | 0.045

The next compounds have a lower EC50 than those just listed; values first:

EC50 [nM] | SMILES
0.012 | CC[C@H](C)[C@H](NC(=O)[C@H](CCC(N)=O)NC(=O)[C@H](Cc1c[nH]cn1)NC(=O)[C@H](C)NC(=O)[C@H](CC(C)C)NC(=O)[C@H](CCCNC(=N)N)NC(=O)[C@H](CCC(=O)O)NC(=O)[C@@H](NC(=O)[C@@H](NC(=O)[C@@H]1CSSC[C@H](NC(=O)[C@H](CCCCN)NC(=O)CC[C@H](NC(=O)CCCCCCCCCCCCCCCCCCC(=O)O)C(=O)O)C(=O)N[C@@H](CC(N)=O)C(=O)N[C@@H]([C@@H](C)O)C(=O)N[C@@H](C)C(=O)N[C@@H]([C@@H](C)O)C(=O)N1)[C@@H](C)O)C(C)C)C(=O)N[C@@H](Cc1ccc(O)cc1)C(=O)N[C@@H](CCC(N)=O)C(=O)N[C@@H](Cc1ccccc1)C(=O)N[C@H](C(=O)N[C@@H](CC(=O)O)C(=O)N[C@@H](CCCCN)C(=O)N[C@@H](CC(=O)O)C(=O)N[C@@H](CCCCN)C(=O)N[C@@H](CC(=O)O)C(=O)N[C@@H](CC(N)=O)C(=O)N[C@H](C(=O)N[C@@H](C)C(=O)N1CCC[C@H]1C(=O)N1CCC[C@H]1C(=O)N[C@H](C(=O)N[C@@H](CC(N)=O)C(=O)N[C@H](C(=O)NCC(=O)N[C@@H](CO)C(=O)N[C@@H](CC(N)=O)C(=O)NCC(=O)N1C[C@H](O)C[C@H]1C(N)=O)C(C)C)[C@@H](C)O)C(C)C)[C@@H](C)O [compound 55] ({C20 diacid-γGlu}-KCNTATCTVERLAHQIYQFTDKDKDNVAPPTNVGSNG[Hyp]-NH2; disulfide 2-7)
0.011 | CC[C@H](C)[C@H](NC(=O)[C@H](CCC(N)=O)NC(=O)[C@H](Cc1c[nH]cn1)NC(=O)[C@H](C)NC(=O)[C@H](CC(C)C)NC(=O)[C@H](CCCNC(=N)N)NC(=O)[C@H](CCC(N)=O)NC(=O)[C@@H](NC(=O)[C@@H](NC(=O)[C@@H]1CSSC[C@H](NC(=O)[C@H](CCCCN)NC(=O)CC[C@H](NC(=O)CCCCCCCCCCCCCCCCCCC(=O)O)C(=O)O)C(=O)N[C@@H](CC(N)=O)C(=O)N[C@@H]([C@@H](C)O)C(=O)N[C@@H](C)C(=O)N[C@@H]([C@@H](C)O)C(=O)N1)[C@@H](C)O)C(C)C)C(=O)N[C@@H](Cc1ccc(O)cc1)C(=O)N[C@@H](CCC(N)=O)C(=O)N[C@@H](Cc1ccc(O)cc1)C(=O)N[C@H](C(=O)N[C@@H](CC(=O)O)C(=O)N[C@@H](CCCCN)C(=O)N[C@@H](CC(=O)O)C(=O)N[C@@H](CCCCN)C(=O)N[C@@H](CC(=O)O)C(=O)N[C@@H](CC(N)=O)C(=O)N[C@H](C(=O)N[C@@H](C)C(=O)N1CCC[C@H]1C(=O)N1CCC[C@H]1C(=O)N[C@H](C(=O)N[C@@H](CC(N)=O)C(=O)N[C@H](C(=O)NCC(=O)N[C@@H](CO)C(=O)N[C@@H](CC(N)=O)C(=O)NCC(=O)N1C[C@H](O)C[C@H]1C(N)=O)C(C)C)[C@@H](C)O)C(C)C)[C@@H](C)O [compound 48] ({C20 diacid-γGlu}-KCNTATCTVQRLAHQIYQYTDKDKDNVAPPTNVGSNG[Hyp]-NH2; disulfide 2-7)
0.016 | CC[C@H](C)[C@H](NC(=O)[C@H](CCC(N)=O)NC(=O)[C@H](Cc1c[nH]cn1)NC(=O)[C@H](C)NC(=O)[C@H](CC(C)C)NC(=O)[C@H](CCCNC(=N)N)NC(=O)[C@H](CCC(N)=O)NC(=O)[C@@H](NC(=O)[C@@H](NC(=O)[C@@H]1CSSC[C@H](NC(=O)[C@H](CCCCN)NC(=O)CC[C@H](NC(=O)CCCCCCCCCCCCCCCCCCC(=O)O)C(=O)O)C(=O)N[C@@H](CC(N)=O)C(=O)N[C@@H]([C@@H](C)O)C(=O)N[C@@H](C)C(=O)N[C@@H]([C@@H](C)O)C(=O)N1)[C@@H](C)O)C(C)C)C(=O)N[C@@H](C)C(=O)N[C@@H](CCC(N)=O)C(=O)N[C@@H](Cc1ccccc1)C(=O)N[C@H](C(=O)N[C@@H](CC(=O)O)C(=O)N[C@@H](CCCCN)C(=O)N[C@@H](CC(=O)O)C(=O)N[C@@H](CCCCN)C(=O)N[C@@H](CC(=O)O)C(=O)N1CCC[C@H]1C(=O)N[C@H](C(=O)N[C@@H](C)C(=O)N1CCC[C@H]1C(=O)N1CCC[C@H]1C(=O)N[C@H](C(=O)N[C@@H](CC(N)=O)C(=O)N[C@H](C(=O)NCC(=O)N[C@@H](CO)C(=O)N[C@@H](CC(N)=O)C(=O)NCC(=O)N1C[C@H](O)C[C@H]1C(N)=O)C(C)C)[C@@H](C)O)C(C)C)[C@@H](C)O [compound 92] ({C20 diacid-γGlu}-KCNTATCTVQRLAHQIAQFTDKDKDPVAPPTNVGSNG[Hyp]-NH2; disulfide 2-7)
0.019 | CC[C@H](C)[C@H](NC(=O)[C@H](CCC(N)=O)NC(=O)[C@H](Cc1c[nH]cn1)NC(=O)[C@H](C)NC(=O)[C@H](CC(C)C)NC(=O)[C@H](CCCNC(=N)N)NC(=O)[C@H](C)NC(=O)[C@@H](NC(=O)[C@@H](NC(=O)[C@@H]1CSSC[C@H](NC(=O)[C@H](CCCCN)NC(=O)CC[C@H](NC(=O)CCCCCCCCCCCCCCCCCCC(=O)O)C(=O)O)C(=O)N[C@@H](CC(N)=O)C(=O)N[C@@H]([C@@H](C)O)C(=O)N[C@@H](C)C(=O)N[C@@H]([C@@H](C)O)C(=O)N1)[C@@H](C)O)C(C)C)C(=O)N[C@@H](C)C(=O)N[C@@H](CCC(N)=O)C(=O)N[C@@H](Cc1ccccc1)C(=O)N[C@H](C(=O)N[C@@H](CC(=O)O)C(=O)N[C@@H](CCCCN)C(=O)N[C@@H](CC(=O)O)C(=O)N[C@@H](CCCCN)C(=O)N[C@@H](CC(=O)O)C(=O)N[C@@H](CC(N)=O)C(=O)N[C@H](C(=O)N[C@@H](C)C(=O)N1CCC[C@H]1C(=O)N1CCC[C@H]1C(=O)N[C@H](C(=O)N[C@@H](CC(N)=O)C(=O)N[C@H](C(=O)NCC(=O)N[C@@H](CO)C(=O)N[C@@H](CC(N)=O)C(=O)NCC(=O)N1C[C@H](O)C[C@H]1C(N)=O)C(C)C)[C@@H](C)O)C(C)C)[C@@H](C)O [compound 107] ({C20 diacid-γGlu}-KCNTATCTVARLAHQIAQFTDKDKDNVAPPTNVGSNG[Hyp]-NH2; disulfide 2-7)

Reference: patent publication US12139520B2 (priority 2020, dated 2024)
